According to ChEMBL document CHEMBL1137996, “Design, synthesis, and activity of 4-quinolone and pyridone compounds as nonthiol-containing farnesyltransferase inhibitors” (Bioorg Med Chem Lett, 2004):

Tests used:
[1] = target: Protein farnesyltransferase (Bos taurus, UniProt P29702+P49355); assay: Inhibition of Bovine farnesyltransferase (FTase); assay type: protein-complex assay
[2] = target: Geranylgeranyl transferase type I (Bos taurus, UniProt P29702+Q5EAD5); assay: Inhibition of Bovine geranylgeranyltransferase (GGT); assay type: protein-complex assay
[3] = target: T1, Protein farnesyltransferase (Mus musculus, UniProt Q61239+Q8K2I1); assay: Inhibition of Ras farnesylation in H-Ras transformed NIH3T3 cells at 100 nM; assay type: functional, cell-based
[4] = target: T1, Protein farnesyltransferase; assay: Inhibition of Ras farnesylation in H-Ras transformed NIH3T3 cells; assay type: functional, cell-based

IC50 [1] | IC50 [2] | Inhibition [3] | Inhibition ([3]; nih3t3) | SMILES | EC50 [4] | EC50 ([4]; nih3t3)
7.9 nM | > 10000 nM |  |  | N#Cc1ccc(Cn2cncc2CNCc2cc(=O)c(C#N)cn2-c2cccc(Cl)c2)cc1 |  | 
685 nM |  |  |  | Cn1cncc1C(NC(=O)c1cn(C)c(=O)cc1-c1cccc(Cl)c1)c1ccc(C#N)cc1 (stereo unspecified) |  | 
12 nM | 16000 nM | 51% |  | Cn1cncc1C(O)(c1ccc(Cl)cc1)c1ccc2c(=O)c(C#N)cn(-c3cccc(Cl)c3)c2c1 (stereo unspecified) |  | 
17 nM | > 10000 nM | 21% |  | Cn1c(CNCc2cncn2Cc2ccc(C#N)cc2)c(-c2cccc(Cl)c2)cc(C#N)c1=O |  | 
12 nM | > 10000 nM |  | 4% | Cn1cncc1C(OCc1cc(=O)c(C#N)cn1-c1cccc(Cl)c1)c1ccc(C#N)cc1 (stereo unspecified) |  | 
 |  |  |  | Cn1cncc1[C@@](N)(c1ccc(Cl)cc1)c1ccc2c(c1)c(-c1cccc(Cl)c1)cc(=O)n2C [TIPIFARNIB] |  | 1.6 nM

SMILES | IC50 [1] | IC50 [2] | Inhibition [3] | Inhibition ([3]; nih3t3) | EC50 [4] | EC50 ([4]; nih3t3)
NC(=O)N1CCC(CC(=O)N2CCC([C@H]3c4ncc(Br)cc4CCc4cc(Cl)cc(Br)c43)CC2)CC1 [LONAFARNIB] | 8.3 nM | > 10000 nM |  |  | 100 nM | 
